Experiments:
[1] = target: T1, human BRD4 bromodomain II (Homo sapiens, UniProt O60885); test: Bromodomain binding assay (AlphaScreen), BRD4 BDII; conditions: AlphaScreen assay, Table C2; read-out: BRD4 BDII IC50
T1 construct: human BRD4 bromodomain II [based on Genbank NM_058243, residues 349-460]; host or cells: E. coli
Method in brief: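 Tagged BRD4 BDI or BDII constructs, expressed in E. coli, competed against a K5/K8/K12/K16-acetylated biotin-H4 peptide. Proximity signal between bead pairs after room-temperature incubations gave concentration-response curves, from which IC50 was derived.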

[2] = tested on: human SKM-1 acute myeloid leukemia cells; test: SKM-1 antiproliferation cell-based assay (ATPlite); conditions: Homo sapiens, SKM-1, 96 h, SKM-1 antiproliferation assay, 4 days, Table C2
Method in brief: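 Log-phase cells in RPMI 1640/15% FBS were seeded at 34722 cells/mL and exposed for 4 days to nine-concentration DMSO serial dilutions in triplicate. Viability was read as ATP luminescence (ATPlite 1step), and IC50 values came from variable-slope non-linear regression.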

Row | Structure (SMILES) | IC50 [1] [nM] | GI50 [2] [nM]
1 | CC(=O)N[C@]1(C)CCN(c2cncc(-c3cc(F)cc(-c4ccc(-n5ccn(C)c5=O)c(Cl)c4)c3O)c2)C1 [Example 793, (R)-N-(1-(5-(3′-chloro-5-fluoro-2-hydroxy-4′-(3-methyl-2-oxo-2,3-dihydro-1H-imidazol-1-yl)-[1,1′-biphenyl]-3-yl)pyridin-3-yl)-3-methylpyrrolidin-3-yl)acetamide] | 0.01 to 1 | 0.3 to 30
2 | CC(C)N1CCN(c2cc(-c3cc(F)cc(-c4ccc(-n5ccn(C)c5=O)c(Cl)c4)c3O)cnn2)CC1 [Example 797, 1-(3-chloro-5′-fluoro-2′-hydroxy-3′-(6-(4-isopropylpiperazin-1-yl)pyridazin-4-yl)-[1,1′-biphenyl]-4-yl)-3-methyl-1H-imidazol-2(3H)-one] | 0.01 to 1 | 0.3 to 30
3 | Cn1ccn(-c2ccc(-c3cc(F)cc(-c4cnnc(N5CCN(C(C)(C)C)CC5)c4)c3O)cc2Cl)c1=O [Example 798, 1-(3′-(6-(4-(tert-butyl)piperazin-1-yl)pyridazin-4-yl)-3-chloro-5′-fluoro-2′-hydroxy-[1,1′-biphenyl]-4-yl)-3-methyl-1H-imidazol-2(3H)-one] | 0.01 to 1 | 0.3 to 30
4 | COc1ncc(-c2cc(F)cc(-c3ccc(-n4ccn(C)c4=O)c(Cl)c3)c2O)cc1N1CCN(C(C)(C)C)CC1 [Example 802, 1-(3′-(5-(4-(tert-butyl)piperazin-1-yl)-6-methoxypyridin-3-yl)-3-chloro-5′-fluoro-2′-hydroxy-[1,1′-biphenyl]-4-yl)-3-methyl-1,3-dihydro-2H-imidazol-2-one] | 0.01 to 1 | 0.3 to 30
5 | CC(C)N1CCN(c2cc(-c3cc(F)cc(-c4ccc(-n5ccn(C)c5=O)c(Cl)c4)c3O)cnc2C(F)(F)F)CC1 [Example 804, 1-(3-chloro-5′-fluoro-2′-hydroxy-3′-(5-(4-isopropylpiperazin-1-yl)-6-(trifluoromethyl)pyridin-3-yl)-[1,1′-biphenyl]-4-yl)-3-methyl-1H-imidazol-2(3H)-one] | 1 to 10 | 0.3 to 30
6 | Cn1ccn(-c2ccc(-c3cc(F)cc(-c4cnc(C(F)(F)F)c(N5CCN(C(C)(C)C)CC5)c4)c3O)cc2Cl)c1=O [Example 805, 1-(3′-(5-(4-(tert-butyl)piperazin-1-yl)-6-(trifluoromethyl)pyridin-3-yl)-3-chloro-5′-fluoro-2′-hydroxy-[1,1′-biphenyl]-4-yl)-3-methyl-1H-imidazol-2(3H)-one] | 1 to 10 | 30 to 300
7 | Cn1ccn(-c2ccc(-c3cc(F)cc(-c4ccnc(N5CC6CCC6(N)C5)c4)c3O)cc2Cl)c1=O (centres unmarked) [Example 806, 1-(3′-(2-(1-amino-3-azabicyclo[3.2.0]heptan-3-yl)pyridin-4-yl)-3-chloro-5′-fluoro-2′-hydroxy-[1,1′-biphenyl]-4-yl)-3-methyl-1H-imidazol-2(3H)-one] | 1 to 10 | 0.3 to 30
8 | Cn1ccn(-c2ccc(-c3cc(F)cc(-c4ccc(C(F)(F)F)c(N5CCN(C(C)(C)C)CC5)c4)c3O)cc2Cl)c1=O [Example 810, 1-(3″-(4-(tert-butyl)piperazin-1-yl)-3-chloro-5′-fluoro-2′-hydroxy-4″-(trifluoromethyl)-[1,1′:3′,1″-terphenyl]-4-yl)-3-methyl-1H-imidazol-2(3H)-one] | 1 to 10 | 30 to 300
9 | CC(C)N1CCN(c2cc(-c3cc(F)cc(-c4ccc(-n5ccn(C)c5=O)c(Cl)c4)c3O)ccc2C(F)(F)F)CC1 [Example 811, 1-(3-chloro-5′-fluoro-2′-hydroxy-3″-(4-isopropylpiperazin-1-yl)-4″-(trifluoromethyl)-[1,1′:3′,1″-terphenyl]-4-yl)-3-methyl-1H-imidazol-2(3H)-one] | 1 to 10 | 30 to 300
10 | COc1ncc(-c2cc(F)cc(-c3ccc(-n4ccn(C)c4=O)c(Cl)c3)c2O)cc1N1CC[C@@](C)(O)C1 [Example 812, (R)-1-(3-chloro-5′-fluoro-2′-hydroxy-3′-(5-(3-hydroxy-3-methylpyrrolidin-1-yl)-6-methoxypyridin-3-yl)-[1,1′-biphenyl]-4-yl)-3-methyl-1H-imidazol-2(3H)-one] | 0.01 to 1 | 0.3 to 30
11 | CC(C)N1CCN(c2cc(-c3cc(F)cc(-c4ccc(-n5ccn(C)c5=O)c(Cl)c4)c3O)ccc2C(F)F)CC1 [Example 814, 1-(3-chloro-4″-(difluoromethyl)-5′-fluoro-2′-hydroxy-3″-(4-isopropylpiperazin-1-yl)-[1,1′:3′,1″-terphenyl]-4-yl)-3-methyl-1H-imidazol-2(3H)-one] | 0.01 to 1 | 0.3 to 30
12 | Cn1ccn(-c2ccc(-c3cc(F)cc(-c4ccnc(N5CC6(CC6)[C@](C)(O)C5)c4)c3O)cc2Cl)c1=O [Example 815] | 0.01 to 1 | 0.3 to 30
13 | Cn1ccn(-c2ccc(-c3cc(F)cc(-c4ccnc(N5CC6(CC6)[C@@](C)(O)C5)c4)c3O)cc2Cl)c1=O [Example 816] | 0.01 to 1 | 0.3 to 30
14 | CSc1ncc(-c2cc(F)cc(-c3ccc(-n4ccn(C)c4=O)c(Cl)c3)c2O)cc1N1CCN(C(C)C)CC1 [Example 817, 1-(3-chloro-5′-fluoro-2′-hydroxy-3′-(5-(4-isopropylpiperazin-1-yl)-6-(methylthio)pyridin-3-yl)-[1,1′-biphenyl]-4-yl)-3-methyl-1H-imidazol-2(3H)-one] | 1 to 10 | 0.3 to 30

More lines, now with the values ahead:

Row | IC50 [1] [nM] | GI50 [2] [nM] | Structure (SMILES)
15 | 10 to 100 | 300 to 3000 | CC(=O)N(C)C1(c2cccc(-c3cc(F)cc(-c4ccc(-n5ccn(C)c5=O)c(Cl)c4)c3O)c2)CC1 [Example 794, N-(1-(3″-chloro-5′-fluoro-2′-hydroxy-4″-(3-methyl-2-oxo-2,3-dihydro-1H-imidazol-1-yl)-[1,1′:3′,1″-terphenyl]-3-yl)cyclopropyl)-N-methylacetamide]
16 | > 100 | 300 to 3000 | CC(=O)NC(C)(C)C#Cc1cccc(-c2cc(F)cc(-c3ccc(-n4ccn(C)c4=O)c(Cl)c3)c2O)c1 [Example 795, N-(4-(3″-chloro-5′-fluoro-2′-hydroxy-4″-(3-methyl-2-oxo-2,3-dihydro-1H-imidazol-1-yl)-[1,1′:3′,1″-terphenyl]-3-yl)-2-methylbut-3-yn-2-yl)acetamide]
17 | 1 to 10 | 30 to 300 | Cn1ccn(-c2ccc(-c3cc(F)cc(-c4ccc5ncc(C(C)(C)O)cc5c4)c3O)cc2Cl)c1=O [Example 796, 1-(3-chloro-5′-fluoro-2′-hydroxy-3′-(3-(2-hydroxypropan-2-yl)quinolin-6-yl)-[1,1′-biphenyl]-4-yl)-3-methyl-1H-imidazol-2(3H)-one]
18 | 0.01 to 1 | 30 to 300 | CNC1(c2cccc(-c3cc(F)cc(-c4ccc(-n5ccn(C)c5=O)c(Cl)c4)c3O)c2)CC1 [Example 799, 1-(3-chloro-5′-fluoro-2′-hydroxy-3″-(1-(methylamino)cyclopropyl)-[1,1′:3′,1″-terphenyl]-4-yl)-3-methyl-1H-imidazol-2(3H)-one]
19 | 0.01 to 1 | 0.3 to 30 | Cc1ccc(-c2cc(F)cc(-c3ccc(-n4ccn(C)c4=O)c(Cl)c3)c2O)cc1N1CCN(C(C)(C)C)CC1 [Example 800, 1-(3″-(4-(tert-butyl)piperazin-1-yl)-3-chloro-5′-fluoro-2′-hydroxy-4″-methyl-[1,1′:3′,1″-terphenyl]-4-yl)-3-methyl-1H-imidazol-2(3H)-one]
20 | 1 to 10 | 30 to 300 | Cn1ccn(-c2ccc(-c3cc(F)cc(-c4ccc5ccc(C(C)(C)O)cc5c4)c3O)cc2Cl)c1=O [Example 801, 1-(3-chloro-5′-fluoro-2′-hydroxy-3′-(7-(2-hydroxypropan-2-yl)naphthalen-2-yl)-[1,1′-biphenyl]-4-yl)-3-methyl-1H-imidazol-2(3H)-one]
21 | 1 to 10 | 30 to 300 | Cn1ccn(-c2ccc(-c3cc(F)cc(-c4cccc(C5(N)CC5)c4)c3O)cc2Cl)c1=O [Example 803, 1-(3″-(1-aminocyclopropyl)-3-chloro-5′-fluoro-2′-hydroxy-[1,1′:3′,1″-terphenyl]-4-yl)-3-methyl-1H-imidazol-2(3H)-one]
22 | 1 to 10 | 30 to 300 | Cn1ccn(-c2ccc(-c3cc(F)cc(-c4cccc(N5CC[C@@](C)(O)C5)c4)c3O)cc2Cl)c1=O [Example 807, (R)-1-(3-chloro-5′-fluoro-2′-hydroxy-3″-(3-hydroxy-3-methylpyrrolidin-1-yl)-[1,1′:3′,1″-terphenyl]-4-yl)-3-methyl-1H-imidazol-2(3H)-one]
23 | 1 to 10 | 30 to 300 | Cc1ccc(-c2cc(F)cc(-c3ccc(-n4ccn(C)c4=O)c(Cl)c3)c2O)cc1N1CC[C@@](C)(O)C1 [Example 808, (R)-1-(3-chloro-5′-fluoro-2′-hydroxy-3″-(3-hydroxy-3-methylpyrrolidin-1-yl)-4″-methyl-[1,1′:3′,1″-terphenyl]-4-yl)-3-methyl-1H-imidazol-2(3H)-one]
24 | 1 to 10 | 0.3 to 30 | Cn1ccn(-c2ccc(-c3cc(F)cc(-c4ccc(Cl)c(N5CCN(C(C)(C)C)CC5)c4)c3O)cc2Cl)c1=O [Example 809, 1-(3″-(4-(tert-butyl)piperazin-1-yl)-3,4″-dichloro-5′-fluoro-2′-hydroxy-[1,1′:3′,1″-terphenyl]-4-yl)-3-methyl-1H-imidazol-2(3H)-one]
25 | 0.01 to 1 | 30 to 300 | Cn1ccn(-c2ccc(-c3cc(F)cc(-c4ccc(C(F)F)c(N5CCN(C(C)(C)C)CC5)c4)c3O)cc2Cl)c1=O [Example 813, 1-(3″-(4-(tert-butyl)piperazin-1-yl)-3-chloro-4″-(difluoromethyl)-5′-fluoro-2′-hydroxy-[1,1′:3′,1″-terphenyl]-4-yl)-3-methyl-1H-imdiazol-2(3H)-one]
